The values below come from US11685746B2, “Heteroaryl compounds for treating Huntington's disease” (PTC THERAPEUTICS, INC., priority 2018, dated 2023).

This assay relates to Endogenous Huntingtin Protein. Put plainly: Endogenous Huntingtin Protein Assay (MSD plates, MW1 or MAB2166 capture antibody). The assay is classed as cell-based. The following applies: Table 1. The essentials: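 Sandwich MSD immunoassay: plates were coated overnight at 4° C with MW1 (expanded polyQ) or MAB2166 capture antibody at 1 μg/mL, then blocked with 5% BSA. Samples were bound overnight at 4° C, followed by rabbit mAb #5656S and SULFO-TAG anti-rabbit detection, each at 0.25 μg/mL for 1 h at room temperature. Signal was read by electrochemiluminescence.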
Compound `CN(c1nc2sc(-n3ccc(-c4cn[nH]c4)cc3=O)nc2s1)[C@@H]1C[C@H]2CC[C@@H](C1)N2` [Compound 195, 1-(5-{[(1R,3s,5S)-8-azabicyclo[3.2.1]octan-3-yl](methyl)amino}[1,3]thiazolo[5,4-d][1,3]thiazol-2-yl)-4-(1H-pyrazol-4-yl)pyridin-2(1H)-one] displayed a half-inhibitory concentration (IC50) of at most 100 nM. The result for `CN1CCC2(CC1)CN(c1nc3sc(-c4ncc(-c5cn[nH]c5)cc4O)nc3s1)C2` [Compound 196, 2-[5-(7-methyl-2,7-diazaspiro[3.5]nonan-2-yl)[1,3]thiazolo[5,4-d][1,3]thiazol-2-yl]-5-(1H-pyrazol-4-yl)pyridin-3-ol] reads at most 100 nM; that for `Oc1cc(-c2cn[nH]c2)cnc1-c1nc2sc(N3CC4(CC5CCC(C4)N5)C3)nc2s1` [Compound 197, 5-(1H-pyrazol-4-yl)-2-[5-(spiro[8-azabicyclo[3.2.1]octane-3,3′-azetidin]-1′-yl)[1,3]thiazolo[5,4-d][1,3]thiazol-2-yl]pyridin-3-ol], 1000 to 3000 nM. The figure for `Oc1cc(-c2cn[nH]c2)ccc1-c1nc2sc(N3CC4(CC5CCC(C4)N5)C3)nc2s1` [Compound 198, 5-(1H-pyrazol-4-yl)-2-[5-(spiro[8-azabicyclo[3.2.1]octane-3,3′-azetidin]-1′-yl)[1,3]thiazolo[5,4-d][1,3]thiazol-2-yl]phenol] is 500 to 1000 nM; for `Cc1ncc(-c2cnc(-c3nc4sc(N(C)[C@@H]5C[C@H]6CC[C@@H](C5)N6)nc4s3)c(O)c2)s1` [Compound 199, 2-(5-{[(1R,3s,5S)-8-azabicyclo[3.2.1]octan-3-yl](methyl)amino}[1,3]thiazolo[5,4-d][1,3]thiazol-2-yl)-5-(2-methyl-1,3-thiazol-5-yl)pyridin-3-ol] it is at most 100 nM; for `COc1cc(-c2cn[nH]c2)ccc1-c1nc2sc(N(C)C3CCNCC3)nc2s1` [Compound 200, 5-[2-methoxy-4-(1H-pyrazol-4-yl)phenyl]-N-methyl-N-(piperidin-4-yl)[1,3]thiazolo[5,4-d][1,3]thiazol-2-amine] it is 1000 to 3000 nM. The result for `CN(c1nc2sc(-c3ncc(-c4cn[nH]c4)cn3)nc2s1)C1CCNCC1` [Compound 201, N-methyl-N-(piperidin-4-yl)-5-[5-(1H-pyrazol-4-yl)pyrimidin-2-yl][1,3]thiazolo[5,4-d][1,3]thiazol-2-amine] reads 500 to 1000 nM; that for `CN(c1nc2sc(-c3ccc(-c4cn[nH]c4)cc3O)nc2s1)[C@H]1CCN[C@@H](CO)C1` [Compound 202, 2-(5-{[(2R,4S)-2-(hydroxymethyl)piperidin-4-yl](methyl)amino}[1,3]thiazolo[5,4-d][1,3]thiazol-2-yl)-5-(1H-pyrazol-4-yl)phenol], at most 100 nM; that for `CN(c1nc2sc(-c3ncc(-c4cn[nH]c4)cc3O)nc2s1)[C@@H]1C[C@H]2CC[C@@H](C1)N2` [Compound 203, 2-(5-{[(1R,3s,5S)-8-azabicyclo[3.2.1]octan-3-yl](methyl)amino}[1,3]thiazolo[5,4-d][1,3]thiazol-2-yl)-5-(1H-pyrazol-4-yl)pyridin-3-ol], at most 100 nM. In turn, `CN(c1nc2sc(-c3ncc(-c4cn[nH]c4)cc3O)nc2s1)C1CCN(C2CC2)CC1` [Compound 204, 2-{5-[(1-cyclopropylpiperidin-4-yl)(methyl)amino][1,3]thiazolo[5,4-d][1,3]thiazol-2-yl}-5-(1H-pyrazol-4-yl)pyridin-3-ol] gave an IC50 of 100 to 500 nM.

In the case of `CC(C)N1CCC(N(C)c2nc3sc(-c4ncc(-c5cn[nH]c5)cc4O)nc3s2)CC1` [Compound 205, 2-(5-{methyl[1-(propan-2-yl)piperidin-4-yl]amino}[1,3]thiazolo[5,4-d][1,3]thiazol-2-yl)-5-(1H-pyrazol-4-yl)pyridin-3-ol], the IC50 was at most 100 nM.

As for `CCCN1CCC(N(C)c2nc3sc(-c4ncc(-c5cn[nH]c5)cc4O)nc3s2)CC1` [Compound 206, 2-{5-[methyl(1-propylpiperidin-4-yl)amino][1,3]thiazolo[5,4-d][1,3]thiazol-2-yl}-5-(1H-pyrazol-4-yl)pyridin-3-ol], the IC50 was at most 100 nM.

By IC50 is commonly meant the concentration needed to halve the response being measured. Read a low IC50 as greater potency in that assay.
